Measured values taken from ChEMBL document CHEMBL1149963, “Synthesis of a novel series of 3-oxo-2,4-dioxobicyclo[3.2.1]octanes: additional evidence for two thromboxane receptor subtypes” (Bioorg Med Chem Lett, 1994).

Assays:
Thromboxane A2 receptor [1] = biological target: T1, Thromboxane A2 receptor (Rattus norvegicus, UniProt P34978); experiment: Activity against thromboxane A2 receptor evaluated by contraction of isolated rat thoracic aorta; type: tissue-based
T1 sequence (P34978 whole entry): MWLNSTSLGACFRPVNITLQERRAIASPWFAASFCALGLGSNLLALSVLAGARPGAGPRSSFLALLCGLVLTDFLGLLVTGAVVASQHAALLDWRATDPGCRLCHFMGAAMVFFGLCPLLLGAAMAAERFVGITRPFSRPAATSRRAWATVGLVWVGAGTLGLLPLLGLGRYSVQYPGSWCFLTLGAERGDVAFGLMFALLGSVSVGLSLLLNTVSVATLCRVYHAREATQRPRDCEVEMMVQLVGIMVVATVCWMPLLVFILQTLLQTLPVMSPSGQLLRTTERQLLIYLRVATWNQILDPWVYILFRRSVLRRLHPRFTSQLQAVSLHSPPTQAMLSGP

Thromboxane A2 receptor [2] = biological target: T2, Thromboxane A2 receptor (Homo sapiens, UniProt P21731); experiment: Activity against thromboxane A2 receptor evaluated by aggregation of human platelets at 0-10 uM; Not active
T2 sequence (P21731 whole entry): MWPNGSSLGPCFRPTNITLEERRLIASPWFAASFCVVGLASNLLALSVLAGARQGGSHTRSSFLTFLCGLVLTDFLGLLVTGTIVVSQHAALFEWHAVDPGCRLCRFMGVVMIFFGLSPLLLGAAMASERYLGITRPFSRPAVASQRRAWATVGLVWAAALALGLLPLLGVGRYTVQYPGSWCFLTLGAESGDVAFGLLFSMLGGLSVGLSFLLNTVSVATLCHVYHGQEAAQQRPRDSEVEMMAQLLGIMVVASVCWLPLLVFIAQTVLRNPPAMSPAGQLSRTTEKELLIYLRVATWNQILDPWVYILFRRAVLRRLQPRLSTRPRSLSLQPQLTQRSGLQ

| EC50 (Thromboxane A2 receptor [1]) [nM] | EC50 (Thromboxane A2 receptor [2]) | Structure (SMILES) |
| --- | --- | --- |
| 324 | Not Active | CCCCCC(O)/C=C/[C@@H]1[C@@H](C/C=C\CCCC(=O)NC(C)C)[C@@H]2C[C@H]1OC(=O)O2 (stereo partly specified) |
| 0.23 | – | CCCCCC(O)/C=C/[C@@H]1[C@@H](C/C=C\CCCC(=O)O)[C@@H]2C[C@H]1OC(=O)O2 (stereo partly specified) |
| 58 | – | CCCCCC(O)/C=C/[C@@H]1[C@@H](C/C=C\CCCC(N)=O)[C@@H]2C[C@H]1OC(=O)O2 (stereo partly specified) |
| 1 | Not Active | CCCCCC(O)/C=C/[C@@H]1[C@@H](C/C=C\CCCCO)[C@@H]2C[C@H]1OC(=O)O2 (stereo partly specified) |
